Assay results: article PMC11472313, “Development of Fragment-Based Inhibitors of the Bacterial Deacetylase LpxC with Low Nanomolar Activity” (Journal of Medicinal Chemistry, 2024)
≈ marks a conversion by molar mass, not a printed value. Like-named read-outs stand apart in the source and are kept apart here.

Tests used:
[1] = test system: E. coli LpxC (EcLpxC); settings: cited from earlier work
[2] = test system: P. aeruginosa LpxC (PaLpxC); settings: cited from earlier work
[3] = molecular target: T1, LasB (Pseudomonas aeruginosa, UniProt Q02RJ6); settings: cited from earlier work
T1 construct: The elastase LasB of P. aeruginosa is a secreted metalloprotease; endogenous in cells; host or cells: P. aeruginosa PA14 culture supernatant
T1 sequence (Q02RJ6 198-498): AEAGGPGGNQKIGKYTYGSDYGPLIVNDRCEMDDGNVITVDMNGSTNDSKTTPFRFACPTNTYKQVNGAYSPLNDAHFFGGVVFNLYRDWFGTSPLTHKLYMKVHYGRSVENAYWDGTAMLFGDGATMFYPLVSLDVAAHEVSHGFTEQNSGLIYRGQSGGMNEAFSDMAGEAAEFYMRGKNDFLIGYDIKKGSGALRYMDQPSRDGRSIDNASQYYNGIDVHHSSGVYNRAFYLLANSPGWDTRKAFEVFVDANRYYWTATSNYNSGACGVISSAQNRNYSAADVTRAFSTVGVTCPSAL

[4] = test system: E. coli BL21(DE3); settings: cited from earlier work
[5] = molecular target: T2, E. coli LpxC C63A (Escherichia coli, UniProt P0A725, C63A); settings: versus (2R,3S)-10; cited from earlier work
T2 construct: made in house; host or cells: E. coli BL21(DE3)
T2 sequence (P0A725 whole entry C63A): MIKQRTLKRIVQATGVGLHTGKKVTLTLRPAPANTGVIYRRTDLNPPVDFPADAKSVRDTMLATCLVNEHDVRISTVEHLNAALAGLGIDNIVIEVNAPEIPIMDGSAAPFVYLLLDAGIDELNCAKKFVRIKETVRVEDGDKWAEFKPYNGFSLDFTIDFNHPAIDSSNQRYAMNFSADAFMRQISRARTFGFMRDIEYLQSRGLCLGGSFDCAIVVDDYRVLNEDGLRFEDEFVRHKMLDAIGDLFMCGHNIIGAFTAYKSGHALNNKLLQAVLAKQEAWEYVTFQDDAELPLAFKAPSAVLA

[6] = test system: E. coli ATCC 35218; assay: disc diffusion assay; format: cell-based; settings: 0.15 μmol per 6 mm disc
Protocol: (§1) In the performed disc diffusion assays, indole derivatives (S)-13h, (S)-13i, and (S)-13j caused promising halos of growth inhibition.
(§2) The disc diffusion assays against E. coli TOP10 (Thermo Fisher, Waltham, USA), E. coli ATCC 35218, K. pneumoniae ATCC 700603, and P. aeruginosa ATCC 27853 were performed as follows: the bacteria were grown overnight on a Columbia blood agar plate (Oxoid, Basingstoke, UK), and one colony was suspended in sterile saline to yield a suspension of 0.5 McFarland standard. Using a sterile swab, the suspension was spread evenly onto Mueller–Hinton agar (Oxoid, Basingstoke, UK). 0.15 μmol of each compound (dissolved in 10 μL DMSO) was applied onto circular 6 mm diameter filter paper disks, which were then placed on the agar. After incubating the agar plates for 20 h at 37 °C, the diameter of the zone of growth inhibition was measured for each compound.

[7] = test system: P. aeruginosa ATCC 27853; assay: disc diffusion assay; format: cell-based; settings: 0.15 μmol per 6 mm disc
Protocol: as §1, §2

[8] = test system: E. coli TOP10; assay: disc diffusion assay; format: cell-based; settings: 0.15 μmol per 6 mm disc
Protocol: as §1, §2

[9] = molecular target: T1, LasB; assay: FRET-based LasB in vitro inhibition assay; format: biochemical, P. aeruginosa PA14
Protocol: Purification of LasB from P. aeruginosa PA14 supernatant and the subsequent performance of the FRET-based in vitro inhibition assay was performed as described previously.[66] The TACE (ADAM-17) inhibitor screening kit was purchased from Sigma-Aldrich (Saint Louis, MO). MMPs 1–3 along with the SensoLyte 520 Generic MMP Activity Kit Fluorimetric were purchased from AnaSpec (Fremont, CA, USA). The assays were performed according to the guidelines of the respective manufacturer. Fluorescence signals were measured using a CLARIOstar plate reader (BMG Labtech, Ortenberg, Germany).

[10] = molecular target: T2, E. coli LpxC C63A; assay: fluorescence-based E. coli LpxC C63A enzyme inhibition assay; format: biochemical; settings: Ki E. coli LpxC C63A, from IC50 via Cheng–Prusoff
Protocol: In order to determine the inhibitory activities of the compounds of interest toward E. coli LpxC, a fluorescence-based enzyme assay was deployed, in which the formed deacetylated natural product UDP-3-O-[(R)-3-hydroxymyristoyl]glucosamine (2) is transformed into a fluorescent isoindole with o-phthaldialdehyde and 2-mercaptoethanol.[48],[49] […] The KM of E. coli LpxC C63A was determined experimentally using a mass spectrometry-based LpxC assay (Figure S8, Supporting Information, vide infra).
A fluorescence-based microplate assay for LpxC activity was performed as described by Clements et al.[48] The wells in a black, nonbinding, 96-well fluorescence microplate (Greiner Bio One, Frickenhausen) were filled with 93 μL of 26.9 μM UDP-3-O-[(R)-3-hydroxymyristoyl]-N-acetylglucosamine in assay buffer [40 mM sodium morpholinoethanesulfonic acid (pH 6.0), 80 μM dithiothreitol, 0.02% Brij 35]. In order to assay the inhibitors at final concentrations from 20 nM up to 20 μM, 2 μL of a respective dilution of the compounds in DMSO were added. The addition of 5 μL of a solution of purified LpxC (10 μg mL^–1) in assay buffer led to final concentrations of 25 μM UDP-3-O-[(R)-3-hydroxymyristoyl]-N-acetylglucosamine, 15 nM E. coli LpxC C63A, 2% DMSO, and from 20 nM up to 20 μM inhibitor. The microplate was incubated for 30 min at 37 °C in a plate shaker. Then, the biochemical reaction was stopped by adding 40 μL of 0.625 M sodium hydroxide. The reaction mixture was further incubated for 10 min and neutralized by adding 40 μL of 0.625 M acetic acid. The deacetylated product UDP-3-O-[(R)-3-hydroxymyristoyl]glucosamine was converted into a fluorescing isoindole by adding 120 μL of an o-phthaldialdehyde-2-mercaptoethanol solution, which was prepared by dissolving 10 mg of o-phthaldialdehyde in 1 mL of methanol, diluting the mixture with 24 mL of a sodium borate buffer (0.1 M), and finally adding 2.5 μL of 2-mercaptoethanol.[49] Fluorescence was measured with a TriStar^2 S LB 942 plate reader (Berthold, Bad Wildbad) at 340 nm excitation and 460 nm emission wavelengths. Each assay was performed at least three times on separate days. The IC50 values were calculated via Probit-log concentration graphs with the aid of the software Origin and were subsequently converted into Ki values using the Cheng–Prusoff equation.[75],[76]

[11] = test system: E. coli D22; assay: disc diffusion assay; format: cell-based; settings: 0.15 μmol per 6 mm disc
Protocol: (§3) Besides measuring the inhibitory activities toward E. coli LpxC C63A, the antibacterial activities of the synthesized hydroxamic acids were evaluated by determining their minimal inhibitory concentrations (MIC) in broth dilution tests as well as by performing disc diffusion assays (Table 1).
(§4) The disc diffusion assays against E. coli BL21(DE3) and the defective strain E. coli D22 were performed as follows: liquid cultures of the bacteria were grown overnight in lysogeny broth (LB)[73] at 37 °C and 200 rpm. 150 μL of an overnight cell suspension was spread evenly onto LB agar plates. 0.15 μmol of each compound (dissolved in 10 or 15 μL DMSO) were applied onto circular filter paper (Ø = 6 mm, Cytiva). Pure DMSO, serving as a negative control, and CHIR-090, serving as a positive control, were also spotted. The agar plates were incubated overnight at 37 °C, and the diameter of the zone of growth inhibition was measured for each compound. Each assay was performed at least three times on separate days.

[12] = test system: E. coli BL21(DE3); assay: disc diffusion assay; format: cell-based; settings: 0.15 μmol per 6 mm disc
Protocol: as §3, §4

[13] = test system: E. coli D22; assay: MIC, broth microdilution; format: cell-based; settings: Escherichia coli, 20 h, 37 °C, LB
Protocol: as §3
(§5) The MIC values of the compounds were determined by means of the microdilution method using 96-well plates.
(§6) The overnight suspension was diluted 1:1000 in fresh LB. 10 μL of a 2-fold dilution series of the compounds in DMSO and 90 μL of LB were dispensed to each well of a 96-well plate. Then, 100 μL of the inoculated medium was added, resulting in 5 × 10^5 cfu mL^–1, 5% DMSO, and a final concentration range of the test compounds between 64 and 0.016 μg mL^–1. The plates were incubated for 20 h at 37 °C. The MIC was defined as the lowest concentration of the compounds that prevented visible growth after incubation. Each assay was performed at least three times on separate days.

[14] = test system: E. coli BL21(DE3); assay: MIC, broth microdilution; format: cell-based; settings: Escherichia coli, 20 h, 37 °C, LB
Protocol: as §3, §5, §6

[15] = test system: K. pneumoniae ATCC 700603; assay: disc diffusion assay; format: cell-based, Klebsiella pneumoniae; settings: 0.15 μmol per 6 mm disc
Protocol: as §1, §2

SMILES: O=c1ccn([C@@H]2O[C@H](CO/N=C/c3ccc(O)c(O)c3O)[C@@H](O)[C@H]2O)c(=O)[nH]1 [1-68A, 1–68A]
- IC50 [1]: 27 µM

SMILES: CC(O)(c1ccc(O)cc1)C(NC(=O)c1ccc(C#CC#Cc2ccc(N)cc2)cc1)C(=O)NO (stereo not drawn) [3b]
- Ki [1]: 0.024 nM

SMILES: C[C@@](CO)(OCc1ccc(-c2ccccc2)cc1)C(=O)NO [5a]
- IC50 [2]: 22 nM

SMILES: C[C@@](OCc1ccc(-c2ccccc2)cc1)(C(=O)NO)[C@@H](O)c1ccccn1 [5b]
- IC50 [2]: 15 nM

SMILES: C[C@@](OCc1ccc(-c2ccccc2)cc1)(C(=O)NO)[C@@H](O)c1cnc[nH]1 [5c]
- IC50 [2]: 0.8 nM

SMILES: Cc1cc([C@H](O)[C@](C)(OCc2ccc(-c3ccccc3)cc2)C(=O)NO)no1 [5d]
- IC50 [2]: 0.4 nM

SMILES: CCc1ccc(-c2ccc(C(=O)N[C@H](C(=O)NO)[C@@H](C)N)cc2)cc1 [7a]
- PaLpxC: IC50 [2]: 0.5 ng/mL

SMILES: CCc1ccc(-c2ccc(C(=O)N[C@H](C(=O)NO)[C@@H](C)NCC(=O)O)cc2)cc1 [7b]
- PaLpxC: IC50 [2]: 0.4 ng/mL

SMILES: CCc1ccc(-c2ccc(C(=O)N[C@H](C(=O)NO)[C@@H](C)NCc3ccccn3)cc2)cc1 [7d]
- PaLpxC: IC50 [2]: 41 ng/mL

SMILES: O=C(NO)[C@H](OCc1ccc(C#Cc2ccc(CN3CCOCC3)cc2)cc1)[C@H](O)COCc1ccccc1 [(2R,3R)-10]
- LasB Inhibition at 20 μM [3]: n.i. (n.i.: <10% inhibition)

SMILES: O=C(NO)[C@H](OCc1ccc(C#Cc2ccc(CN3CCOCC3)cc2)cc1)[C@@H](O)COCc1ccccc1 [(2R,3S)-10]
- LasB Inhibition at 20 μM [3]: n.i. (n.i.: <10% inhibition)
- MIC E. coli BL21(DE3) [4]: >64 µg/mL

SMILES: O=C(NO)[C@@H](OCc1ccc(C#Cc2ccc(CN3CCOCC3)cc2)cc1)[C@@H](O)COCc1ccccc1 [(2S,3S)-10]
- MIC E. coli BL21(DE3) [4]: 4.0 µg/mL (≈ 7.54 µM)
- fold higher LpxC inhibitory activity than its (2R)-configured diastereomer [5]: about 3 fold

SMILES: Cc1noc(C)c1COC[C@H](O)[C@H](OCc1ccc(C#Cc2ccc(CN3CCOCC3)cc2)cc1)C(=O)NO [(2S,3S)-40]
- LasB Inhibition at 20 μM [3]: n.i. (n.i.: <10% inhibition)

SMILES: O=C(NC[C@H](OCc1ccc(C#Cc2ccc(CN3CCOCC3)cc2)cc1)C(=O)NO)c1ccc(-c2ccccc2)cc1 [(S)-13b]
- Inhibition zone E. coli ATCC 35218 [6]: <6 mm
- Inhibition zone P. aeruginosa ATCC 27853 [7]: <6 mm
- Inhibition zone E. coli TOP 10 [8]: <6 mm
- LasB Inhibition at 20 μM ([9]; 20 μM): little to no inhibitory activity
- inhibition at 20 µM ([9]; read-out: LasB Inhibition at 20 μM): < 10%
- Ki [10]: > 2540 nM
- Inhibition zone E. coli D22 [11]: 11.2 ± 2.9 mm
- Inhibition zone E. coli BL21(DE3) [12]: ≤6 mm
- MIC [13]: 0.13 µg/mL (≈ 0.22 µM)
- MIC [14]: > 16 µg/mL
- Inhibition zone K. pneumoniae ATCC 700603 [15]: <6 mm

SMILES: CC(O)C(NC(=O)c1ccc(C#CC#Cc2ccc(N)cc2)cc1)C(=O)NO (stereo not drawn) [LPC-011]
- Ki [1]: 0.039 nM
